Reference: patent publication US10618918B2, “Substituted boronic acids as antimicrobials” (priority 2015, dated 2020)
Read-outs that look alike come from different tables or passages of the source.

How the values were obtained:
ECL1002 = assay: Aztreonam potentiation (MPC@4), strain ECL1002; details: minimum BLI concentration inhibiting growth with aztreonam 4 μg/mL; tested up to 40 μg/mL
KP1004 KPC-2 [1] = assay: Aztreonam potentiation (MPC@4), strain KP1004 KPC-2; details: minimum BLI concentration inhibiting growth with aztreonam 4 μg/mL; tested up to 40 μg/mL
KP1005 CTX-M-14 = assay: Tigemonam potentiation (MPC@4), strain KP1005 CTX-M-14; details: minimum BLI concentration inhibiting growth with tigemonam 4 μg/mL; tested up to 40 μg/mL
ec308 SHV-5 = assay: Aztreonam potentiation (MPC@4), strain ec308 SHV-5; details: minimum BLI concentration inhibiting growth with aztreonam 4 μg/mL; tested up to 40 μg/mL
EC1010 CMY-6 = assay: Aztreonam potentiation (MPC@4), strain EC1010 CMY-6; details: minimum BLI concentration inhibiting growth with aztreonam 4 μg/mL; tested up to 40 μg/mL
[2] = target: purified class A, C and D enzymes (β-lactamases) (Klebsiella pneumoniae, UniProt Q6XEC0); assay: biochemical; type: biochemical
[3] = target: purified class A, C and D enzymes (β-lactamases) (Klebsiella pneumoniae, UniProt Q9F663); assay: biochemical; type: biochemical
[4] = target: purified class A, C and D enzymes (β-lactamases) (Escherichia coli, UniProt Q9L5C7); assay: biochemical; type: biochemical
Chain of purified class A, C and D enzymes (β-lactamases) (Escherichia coli, UniProt Q9L5C7) (Q9L5C7 entry or part of it): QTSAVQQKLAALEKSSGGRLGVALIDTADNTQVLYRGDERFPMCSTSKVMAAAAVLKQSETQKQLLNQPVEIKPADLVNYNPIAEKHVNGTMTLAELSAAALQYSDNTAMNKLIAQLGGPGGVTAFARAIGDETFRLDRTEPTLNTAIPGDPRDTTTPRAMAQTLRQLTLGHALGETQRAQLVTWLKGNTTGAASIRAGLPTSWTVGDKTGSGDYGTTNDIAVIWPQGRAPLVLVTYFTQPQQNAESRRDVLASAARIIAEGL

KP1086 OXA-48 = assay: Biapenem potentiation (MPC@1), strain KP1086 OXA-48; type: cell-based; details: minimum BLI concentration inhibiting growth with biapenem 1 μg/mL; tested up to 40 μg/mL
Method: (§1) Biapenem was present in the test medium at 1 μg/mL. […] Table 3 summarizes the BLI potency of biapenem potentiation (MPC@1) for two strains overexpressing class A (KPC) and class D (OXA-48) carbapenemases. Biapenem MIC for each strain is also shown.

KP1004 KPC-2 [5] = assay: Biapenem potentiation (MPC@1), strain KP1004 KPC-2; type: cell-based; details: minimum BLI concentration inhibiting growth with biapenem 1 μg/mL; tested up to 40 μg/mL
Method: as §1

KP1009 CTX-M-15 = assay: Aztreonam potentiation (MPC@4), strain KP1009 CTX-M-15; details: minimum BLI concentration inhibiting growth with aztreonam 4 μg/mL; tested up to 40 μg/mL
ec302 TEM-10 = assay: Aztreonam potentiation (MPC@4), strain ec302 TEM-10; details: minimum BLI concentration inhibiting growth with aztreonam 4 μg/mL; tested up to 40 μg/mL
KP1010 SHV-12 = assay: Aztreonam potentiation (MPC@4), strain KP1010 SHV-12; details: minimum BLI concentration inhibiting growth with aztreonam 4 μg/mL; tested up to 40 μg/mL
AB1053 OXA-72 = assay: Meropenem potentiation (MPC@8), strain AB1053 OXA-72; type: cell-based, Acinetobacter baumannii; details: minimum BLI concentration inhibiting growth with meropenem 8 μg/mL; tested up to 20 μg/mL
AB1054 OXA-23 = assay: Meropenem potentiation (MPC@8), strain AB1054 OXA-23; type: cell-based, Acinetobacter baumannii; details: minimum BLI concentration inhibiting growth with meropenem 8 μg/mL; tested up to 20 μg/mL
[6] = target: purified class A, C and D enzymes (β-lactamases) (Enterobacter cloacae, UniProt P05364); assay: biochemical; type: biochemical
Chain of purified class A, C and D enzymes (β-lactamases) (Enterobacter cloacae, UniProt P05364) (P05364 21-381): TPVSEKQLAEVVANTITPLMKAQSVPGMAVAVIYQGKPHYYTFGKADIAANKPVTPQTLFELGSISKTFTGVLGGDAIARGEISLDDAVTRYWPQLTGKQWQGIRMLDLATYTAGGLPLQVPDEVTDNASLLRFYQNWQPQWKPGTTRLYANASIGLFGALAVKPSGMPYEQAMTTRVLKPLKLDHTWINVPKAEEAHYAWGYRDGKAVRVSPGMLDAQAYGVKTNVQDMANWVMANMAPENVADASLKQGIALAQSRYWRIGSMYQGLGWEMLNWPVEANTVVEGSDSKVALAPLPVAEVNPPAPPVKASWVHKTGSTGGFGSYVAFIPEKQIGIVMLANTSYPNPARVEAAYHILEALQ

[7] = target: T1, purified class A, C and D enzymes (β-lactamases) (Acinetobacter baumannii, UniProt Q9L4P2); assay: biochemical; type: biochemical; details: purified OXA-23; nitrocefin (NCF) as reporter substrate
T1 construct: rows headed: Ki (OXA-23, NCF), uM; other: purified OXA-23; nitrocefin (NCF) as reporter substrate
T1 sequence (Q9L4P2 whole entry): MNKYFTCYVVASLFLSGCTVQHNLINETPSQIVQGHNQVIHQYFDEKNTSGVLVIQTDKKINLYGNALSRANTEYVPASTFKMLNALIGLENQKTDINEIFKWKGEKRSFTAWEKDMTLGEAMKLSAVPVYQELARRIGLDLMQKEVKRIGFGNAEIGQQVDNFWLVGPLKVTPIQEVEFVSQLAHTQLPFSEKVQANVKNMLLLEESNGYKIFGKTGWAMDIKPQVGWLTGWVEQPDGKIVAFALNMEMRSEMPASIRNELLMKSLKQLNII

[8] = target: T2, purified class A, C and D enzymes (β-lactamases) (Pseudomonas aeruginosa, UniProt P24735); assay: biochemical; type: biochemical
T2 construct: rows headed: Ki (Pa-AmpC, NCF), uM; other: purified Pa-AmpC; nitrocefin (NCF) as reporter substrate
T2 sequence (P24735 whole entry): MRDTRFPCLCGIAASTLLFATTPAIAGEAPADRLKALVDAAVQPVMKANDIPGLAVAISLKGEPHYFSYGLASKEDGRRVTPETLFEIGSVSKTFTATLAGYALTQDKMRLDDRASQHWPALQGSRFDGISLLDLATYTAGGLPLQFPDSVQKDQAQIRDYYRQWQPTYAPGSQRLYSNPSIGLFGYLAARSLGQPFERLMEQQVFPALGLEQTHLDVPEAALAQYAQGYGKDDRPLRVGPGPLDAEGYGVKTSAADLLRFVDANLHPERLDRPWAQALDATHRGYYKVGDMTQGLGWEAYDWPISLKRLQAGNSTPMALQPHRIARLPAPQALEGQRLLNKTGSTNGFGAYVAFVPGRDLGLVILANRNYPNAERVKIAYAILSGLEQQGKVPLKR

[9] = purified OXA-48, nitrocefin (NCF) as reporter substrate
[10] = purified KPC-2, nitrocefin (NCF) as reporter substrate
[11] = purified CTX-M-14, nitrocefin (NCF) as reporter substrate

Compound	AZT MPC4 ECL1002 (ECL1002)	AZT MPC4 KPC-2 KP1004 (KP1004 KPC-2 [1])	TIG MPC4 CTX-M-14 KP1005 (KP1005 CTX-M-14)	AZT MPC4 SHV-5 ec308 (ec308 SHV-5)	AZT MPC4 CMY-6 EC1010 (EC1010 CMY-6)	BPM MPC1 OXA-48 KP1086 (KP1086 OXA-48)	BPM MPC1 KP1004 KPC-2 (KP1004 KPC-2 [5])	AZT MPC4 CTX-M-15 KP1009 (KP1009 CTX-M-15)	AZT MPC4 TEM-10 ec302 (ec302 TEM-10)	AZT MPC4 SHV-12 KP1010 (KP1010 SHV-12)	MPM MPC8 AB1053 OXA-72 (AB1053 OXA-72)	MPM MPC8 AB1054 OXA-23 (AB1054 OXA-23)	Ki (P99, NCF), uM [6]	Ki (OXA-48, NCF), uM [2, 9]	Ki (KPC-2, NCF), uM [3, 10]	Ki [7]	Ki (CTX-M-14, NCF), uM [4, 11]	Ki [8]	also measured
O=C(O)[C@H]1/C(=C/CO)O[C@@H]2CC(=O)N21 [Clavulanic Acid, reference compound]	Z (Z = MPC@4 > 20 μg/mL)	Z (Z = MPC@4 > 20 μg/mL)	X (X = MPC@4 ≤ 5 μg/mL)	X (X = MPC@4 ≤ 5 μg/mL)	Z (Z = MPC@4 > 20 μg/mL)	Z (Z = MPC@1 > 20 μg/mL)	Y (Y = 5 μg/mL < MPC@1 ≤ 20 μg/mL)	X (X = MPC@4 ≤ 5 μg/mL)	X (X = MPC@4 ≤ 5 μg/mL)	X (X = MPC@4 ≤ 5 μg/mL)									Ki (OXA-48, NCF), uM [2]: Z (key: X = Ki ≤ 0.1 μM; Y = 0.1 μM < Ki ≤ 1 μM; Z = Ki > 1 μM); Ki (KPC-2, NCF), uM [3]: Z (key: X = Ki ≤ 0.1 μM; Y = 0.1 μM < Ki ≤ 1 μM; Z = Ki > 1 μM); Ki (CTX-M-14, NCF), uM [4]: X (key: X = Ki ≤ 0.1 μM; Y = 0.1 μM < Ki ≤ 1 μM; Z = Ki > 1 μM)
COc1ccc2c(c1C(=O)[O-])O[B-](O)(O)[C@@H](C)C2.[Na+].[Na+] [Compound 11, Disodium; (3S)-4,4-dihydroxy-8-methoxy-3-methyl-5-oxa-4-boranuidabicyclo[4.4.0]deca-1(6),7,9-triene-7-carboxylate]	Y (Y = 5 μg/mL < MPC@4 ≤ 20 μg/mL)	Y (Y = 5 μg/mL < MPC@4 ≤ 20 μg/mL)	Z (Z = MPC@4 > 20 μg/mL)	Y (Y = 5 μg/mL < MPC@4 ≤ 20 μg/mL)	X (X = MPC@4 ≤ 5 μg/mL)	Y (Y = 5 μg/mL < MPC@1 ≤ 20 μg/mL)	X (X = MPC@1 ≤ 5 μg/mL)	Y (Y = 5 μg/mL < MPC@4 ≤ 20 μg/mL)	Y (Y = 5 μg/mL < MPC@4 ≤ 20 μg/mL)	Y (Y = 5 μg/mL < MPC@4 ≤ 20 μg/mL)	X (X = MPC@1 ≤ 5 μg/mL)	Y (Y = 5 μg/mL < MPC@1 ≤ 20 μg/mL)	X (key: X = Ki ≤ 0.1 μM; Y = 0.1 μM < Ki ≤ 1 μM; Z = Ki > 1 μM)	X (X = Ki ≤ 0.1 μM)	X (X = Ki ≤ 0.1 μM)	< 100 nM	X (X = Ki ≤ 0.1 μM)	< 100 nM	
COc1ccc2c(c1C(=O)[O-])O[B-](O)(O)[C@@H](CCO)C2.[Na+].[Na+] [Compound 12, Disodium; (3R)-4,4-dihydroxy-3-(2-hydroxyethyl)-8-methoxy-5-oxa-4-boranuidabicyclo[4.4.0]deca-1(6),7,9-triene-7-carboxylate]	Y (Y = 5 μg/mL < MPC@4 ≤ 20 μg/mL)	Y (Y = 5 μg/mL < MPC@4 ≤ 20 μg/mL)	Z (Z = MPC@4 > 20 μg/mL)	Y (Y = 5 μg/mL < MPC@4 ≤ 20 μg/mL)	Y (Y = 5 μg/mL < MPC@4 ≤ 20 μg/mL)	Y (Y = 5 μg/mL < MPC@1 ≤ 20 μg/mL)	X (X = MPC@1 ≤ 5 μg/mL)	Y (Y = 5 μg/mL < MPC@4 ≤ 20 μg/mL)	Z (Z = MPC@4 > 20 μg/mL)	Y (Y = 5 μg/mL < MPC@4 ≤ 20 μg/mL)	Y (Y = 5 μg/mL < MPC@1 ≤ 20 μg/mL)	Y (Y = 5 μg/mL < MPC@1 ≤ 20 μg/mL)	X (key: X = Ki ≤ 0.1 μM; Y = 0.1 μM < Ki ≤ 1 μM; Z = Ki > 1 μM)	X (X = Ki ≤ 0.1 μM)	X (X = Ki ≤ 0.1 μM)	100 to 1000 nM	X (X = Ki ≤ 0.1 μM)	100 to 1000 nM	
